As a reminder, the IC50 is the concentration needed to halve the response being measured.

In the assay the target is T1, human recombinant full-length fatty acid synthase (FASN) (Homo sapiens, UniProt P49327).
T1 construct: human recombinant full-length fatty acid synthase; made in house; host or cells: SF9 cells
T1 sequence (P49327 whole entry): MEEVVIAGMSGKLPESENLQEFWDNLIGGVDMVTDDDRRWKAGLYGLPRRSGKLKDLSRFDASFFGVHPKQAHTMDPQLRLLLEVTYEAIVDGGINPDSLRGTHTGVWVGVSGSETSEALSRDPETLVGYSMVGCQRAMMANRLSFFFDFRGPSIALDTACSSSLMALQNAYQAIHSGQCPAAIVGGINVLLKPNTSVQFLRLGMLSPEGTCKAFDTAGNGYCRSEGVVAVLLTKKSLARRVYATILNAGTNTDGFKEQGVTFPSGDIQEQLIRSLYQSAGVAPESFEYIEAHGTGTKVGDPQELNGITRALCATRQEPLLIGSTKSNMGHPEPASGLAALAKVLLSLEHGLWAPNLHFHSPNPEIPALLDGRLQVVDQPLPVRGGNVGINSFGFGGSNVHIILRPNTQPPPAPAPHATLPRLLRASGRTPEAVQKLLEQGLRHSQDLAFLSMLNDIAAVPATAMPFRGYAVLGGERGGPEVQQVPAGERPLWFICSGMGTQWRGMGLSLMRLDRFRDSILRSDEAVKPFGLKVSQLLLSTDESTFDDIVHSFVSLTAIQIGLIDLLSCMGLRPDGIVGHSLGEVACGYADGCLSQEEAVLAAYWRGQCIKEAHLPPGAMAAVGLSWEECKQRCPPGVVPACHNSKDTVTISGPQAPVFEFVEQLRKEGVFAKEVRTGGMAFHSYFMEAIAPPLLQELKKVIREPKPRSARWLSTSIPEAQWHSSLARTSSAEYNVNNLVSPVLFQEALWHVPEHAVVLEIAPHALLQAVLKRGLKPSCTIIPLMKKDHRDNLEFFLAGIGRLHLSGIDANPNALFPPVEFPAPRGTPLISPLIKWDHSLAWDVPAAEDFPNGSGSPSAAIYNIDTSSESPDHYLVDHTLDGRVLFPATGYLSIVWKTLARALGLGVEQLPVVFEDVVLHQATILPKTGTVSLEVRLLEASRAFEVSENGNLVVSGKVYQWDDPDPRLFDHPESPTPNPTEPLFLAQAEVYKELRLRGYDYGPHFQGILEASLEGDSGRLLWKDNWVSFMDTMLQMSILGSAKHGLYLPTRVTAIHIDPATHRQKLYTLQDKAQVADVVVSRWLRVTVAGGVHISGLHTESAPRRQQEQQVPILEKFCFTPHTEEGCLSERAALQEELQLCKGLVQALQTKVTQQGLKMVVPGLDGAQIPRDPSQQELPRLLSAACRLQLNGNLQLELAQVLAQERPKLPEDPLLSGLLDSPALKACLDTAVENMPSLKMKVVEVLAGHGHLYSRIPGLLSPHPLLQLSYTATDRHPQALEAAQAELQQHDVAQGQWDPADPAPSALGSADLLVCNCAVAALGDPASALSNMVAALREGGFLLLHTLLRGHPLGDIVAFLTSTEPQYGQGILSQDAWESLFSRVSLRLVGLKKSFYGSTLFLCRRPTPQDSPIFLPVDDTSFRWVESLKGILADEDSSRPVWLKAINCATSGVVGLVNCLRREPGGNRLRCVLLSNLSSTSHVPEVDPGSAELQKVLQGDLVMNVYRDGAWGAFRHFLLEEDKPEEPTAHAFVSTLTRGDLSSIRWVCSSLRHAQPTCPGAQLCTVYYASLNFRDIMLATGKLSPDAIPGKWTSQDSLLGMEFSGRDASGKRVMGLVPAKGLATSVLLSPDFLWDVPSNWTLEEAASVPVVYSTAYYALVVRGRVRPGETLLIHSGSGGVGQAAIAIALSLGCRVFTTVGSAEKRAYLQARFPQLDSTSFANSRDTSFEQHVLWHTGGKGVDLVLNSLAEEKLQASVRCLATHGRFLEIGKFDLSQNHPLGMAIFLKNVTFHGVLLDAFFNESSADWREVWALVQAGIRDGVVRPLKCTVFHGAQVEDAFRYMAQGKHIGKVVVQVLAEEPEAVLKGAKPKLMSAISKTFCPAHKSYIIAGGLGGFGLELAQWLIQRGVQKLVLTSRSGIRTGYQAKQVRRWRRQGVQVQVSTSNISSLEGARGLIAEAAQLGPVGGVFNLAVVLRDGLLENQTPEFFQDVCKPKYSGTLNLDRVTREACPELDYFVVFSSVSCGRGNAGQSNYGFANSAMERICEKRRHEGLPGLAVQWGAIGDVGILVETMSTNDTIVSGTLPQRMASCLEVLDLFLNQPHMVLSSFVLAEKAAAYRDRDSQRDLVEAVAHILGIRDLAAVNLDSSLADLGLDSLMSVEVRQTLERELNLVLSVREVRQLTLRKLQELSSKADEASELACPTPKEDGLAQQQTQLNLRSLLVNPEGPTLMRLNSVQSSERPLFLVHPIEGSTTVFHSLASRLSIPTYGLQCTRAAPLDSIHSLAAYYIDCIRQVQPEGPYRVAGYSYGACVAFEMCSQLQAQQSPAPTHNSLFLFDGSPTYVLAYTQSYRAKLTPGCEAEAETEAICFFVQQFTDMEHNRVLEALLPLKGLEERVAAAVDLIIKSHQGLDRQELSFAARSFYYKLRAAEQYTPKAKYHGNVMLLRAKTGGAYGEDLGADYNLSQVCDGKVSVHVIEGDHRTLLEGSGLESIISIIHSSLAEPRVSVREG
The assay is described as follows: Biochemical activity testing of human fatty acid synthase FASN (NADPH fluorescence intensity assay). The following applies: NADPH fluorescence decrease (ex 340 nm / em 460 nm), 30 minutes at room temperature, read-out: IC50 FASN (enzyme assay). An excerpt: aq (aqueous), h (hour), g (gram), L (liter), mg (milligram), MHz (Megahertz), (melting point), eq (equivalent), mL (milliliter), L (microliter), ACN (acetonitrile), AcOH (acetic acid), CDCl3 (deuterated chloroform), CD3OD (deuterated methanol), CH3CN (acetonitrile), c-hex (cyclohexane), DCC (dicyclohexyl carbodiimide), DCM (dichloromethane), DIC (diisopropyl carbodiimide), DIEA (diisopropylethyl-amine), DMF (dimethylformamide), DMSO (dimethylsulfoxide), DMSO-d6 (deuterated dimethylsulfoxide), EDC (1-(3-dimethyl-amino-propyl)-3-ethylcarbodiimide), ESI (Electro-spray ionization), EtOAc (ethyl acetate), Et2O (diethyl ether), EtOH (ethanol), HATU (dimethylamino-([1,2,3]triazolo[4,5-b]pyridin-3-yloxy)-methylene]-dimethylammonium hexafluorophosphate), HPLC (High Performance Liquid Chromatography), i-PrOH (2-propanol), K2CO3 (potassium carbonate), LC (Liquid Chromatography), MeOH (methanol), MgSO4 (magnesium sulfate), MS (mass spectrometry), MTBE (Methyl tert-butyl ether), NaHCO3 (sodium bicarbonate), NaBH4 (sodium borohydride), NMM (N-methyl morpholine), NMR (Nuclear Magnetic Resonance), PyBOP (benzotriazole-1-yl-oxy-trispyrrolidino-phosphonium hexafluorophosphate), RT (room temperature), Rt (retention time), SPE (solid phase extraction), TBTU (2-(1-H-benzotriazole-1-yl)-1,1,3,3-tetramethyluromium tetrafluoro borate), TEA (triethylamine), TFA (trifluoroacetic acid), THF (tetrahydrofuran), TLC (Thin Layer Chromatography), UV (Ultraviolet). Description of the In Vitro Assays Abbreviations: GST=Glutathione-S-transferase FRET=Fluorescence resonance energy transfer HTRF®=(homogenous time resolved fluorescence) HEPES=4-(2-hydroxyethyl)-1-piperazine ethanesulfonic acid buffer DTT=Dithiothreitol BSA=bovine serum albumin CHAPS=detergent; CHAPS=3[(3-cholamidopropyl)dimethylammonio]-1-propanesulfonate Biochemical Activity Testing of Human Fatty Acid Synthase FASN
Fatty acid synthase FASN is a multifunctional enzyme with seven catalytic activities thereby synthesising long chain fatty acids especially palmitoyl-CoA in the presence of co-factor NADPH starting from the substrates acetyl-CoA and malonyl-CoA. The reductive synthesis is realized by the oxidation of NADPH to NADP. Since NADPH has a high fluorescence intensity quantum yield compared to NADP with excitation at 340 nm and emission at 460 nm, the reaction can be monitored via the decrease in fluorescence intensity. The biochemical FASN activity testing was performed as 384 well two-time-point kinetic fluorescence intensity assay format in Greiner low volume medium binding 384-well black microtiter plates in a total assay volume of 8 μl and was used for high throughput screen. In each well 3 μl 40 nM human recombinant full-length fatty acid synthase (produced in-house in SF9 cells) were dispensed in the following assay buffer: 50 mM potassium phosphate buffer pH 7.0, 0.005% (w/v) BSA, 2 mM Glutathione, 0.02% Tween-20. Then 2 μl of 200 μM NADPH in assay buffer were added, followed by the addition of the test compounds in 10 dilution concentrations starting with 30 μM (final concentration) to get a final DMSO content of 1% (v/v). The mixture was incubated for at least 15 min at room temperature. After the pre-incubation the enzymatic reaction was started by the addition of 2 μl substrate solution (80 μM acetyl-CoA, 240 μM malonyl-CoA). A first fluorescence intensity measurement (time point one) was performed with an Envision multimode reader (Perkin Elmer LAS Germany GmbH) at excitation wavelength 340 nm (lamp mode) and emission wavelength 460 nm. The reaction was incubated for 30 minutes at room temperature. After this the fluorescence intensity was measured again in the Envision using the same parameters as described above (second time point measurement). The data were analysed by subtracting the first time point measurement value from the second time point measurement value (after the enzymatic reaction). The differences of the emission signals were determined. […]
For the compound `CCNC(=O)[C@H]1CC[C@@H](N(C)C(=O)c2ccc(-c3noc(C)n3)cc2)C1` [Compound A88, N-((1R,3S)-3-ethylcarbamoyl-cyclopentyl)-N-methyl-4-(5-methyl-[1,2,4]oxadiazol-3-yl)-benzamide], the IC50 fell in the range of 3 to 50 µM.

`C[C@@H](CO)NC(=O)[C@H]1CC[C@@H](N(C)C(=O)c2ccc(-c3nc4ccccc4o3)cc2)C1` [Compound A90, 4-benzoxazol-2-yl-N-[(1R,3S)-3-((S)-2-hydroxy-1-methyl-ethylcarbamoyl)-cyclopentyl]-N-methyl-benzamide]: the IC50 lay in the range of 0.3 to 3 µM.

For the compound `C[C@H](CO)NC(=O)[C@H]1CC[C@@H](N(C)C(=O)c2ccc(-c3nc4ccccc4o3)cc2)C1` [Compound A91, 4-benzoxazol-2-yl-N-[(1R,3S)-3-((R)-2-hydroxy-1-methyl-ethylcarbamoyl)-cyclopentyl]-N-methyl-benzamide], the IC50 was below 0.3 µM.

As to `COC[C@H](C)NC(=O)[C@H]1CC[C@@H](N(C)C(=O)c2ccc(-c3nc4ccccc4o3)cc2)C1` [Compound A92, 4-benzoxazol-2-yl-N-[(1R,3S)-3-((S)-2-methoxy-1-methyl-ethylcarbamoyl)-cyclopentyl]-N-methyl-benzamide], the IC50 fell in the range of 0.3 to 3 µM.

In the case of `CCNC(=O)[C@H]1CC[C@@H](N(C)C(=O)c2ccc(-c3nc4cc(S(N)(=O)=O)ccc4o3)cc2)C1` [Compound A93, N-((1R,3S)-3-ethylcarbamoyl-cyclopentyl)-N-methyl-4-(5-sulfamoyl-benzooxazol-2-yl)-benzamide], the IC50 was in the range of 3 to 50 µM.

Regarding `CCNC(=O)[C@H]1CC[C@@H](N(C)C(=O)c2ccc(-c3nc4cc(F)cc(F)c4o3)cc2)C1` [Compound A96, 4-(5,7-difluoro-benzoxazol-2-yl)-N-((1R,3S)-3-ethylcarbamoyl-cyclopentyl)-N-methyl-benzamide], the IC50 was below 0.3 µM.

Take `CCNC(=O)[C@H]1CC[C@@H](N(C)C(=O)c2ccc(-c3nc4ccc(F)cc4o3)cc2)C1` [Compound A98, N-((1R,3S)-3-ethylcarbamoyl-cyclopentyl)-4-(6-fluoro-benzooxazol-2-yl)-N-methyl-benzamide]: the IC50 is below 0.3 µM.

Consider `CN(C(=O)c1ccc(-c2nc3ccccc3o2)cc1)[C@@H]1CC[C@H](C(=O)NC(C)(C)CO)C1` [Compound A99, 4-benzoxazol-2-yl-N-[(1R,3S)-3-(2-hydroxy-1,1-dimethyl-ethylcarbamoyl)-cyclopentyl]-N-methyl-benzamide], for which the 50% inhibitory concentration (IC50) was 0.3 to 3 µM.

As to `CCNC(=O)[C@H]1CC[C@@H](N(C)C(=O)c2ccc(-c3nc4cc(F)c(F)cc4o3)cc2)C1` [Compound A101, 4-(5,6-difluoro-benzoxazol-2-yl)-N-((1R,3S)-3-ethylcarbamoyl-cyclopentyl)-N-methyl-benzamide], the IC50 is below 0.3 µM.

Take `CCNC(=O)[C@H]1CC[C@@H](N(C)C(=O)c2ccc(-c3cccnc3)cc2)C1` [Compound A102, N-((1R,3S)-3-ethylcarbamoyl-cyclopentyl)-N-methyl-4-pyridin-3-yl-benzamide]: the IC50 was below 0.3 µM.

For the compound `CCNC(=O)[C@H]1CC[C@@H](N(C)C(=O)c2ccc(-c3ccc(C#N)cc3)cc2)C1` [Compound A103, 4′-cyano-biphenyl-4-carboxylic acid ((1R,3S)-3-ethylcarbamoyl-cyclopentyl)-methyl-amide], the IC50 was below 0.3 µM.

For `CCNC(=O)[C@H]1CC[C@@H](N(C)C(=O)c2ccc(-c3ccc(F)cc3)cc2)C1` [Compound A104, 4′-fluoro-biphenyl-4-carboxylic acid ((1R,3S)-3-ethylcarbamoyl-cyclopentyl)-methyl-amide], the IC50 is below 0.3 µM.

In the case of `CN(C(=O)c1ccc(-c2nc3ccccc3o2)cc1)[C@@H]1CC[C@H](C(=O)NCCO)C1` [Compound A106, 4-benzoxazol-2-yl-N-[(1R,3S)-3-(2-hydroxy-ethylcarbamoyl)-cyclopentyl]-N-methyl-benzamide], the IC50 is below 0.3 µM.

`CCNC(=O)[C@H]1CC[C@@H](N(C)C(=O)c2ccc(-c3cccc4[nH]ncc34)cc2)C1` [Compound A107, N-((1R,3S)-3-ethylcarbamoyl-cyclopentyl)-4-(1H-indazol-4-yl)-N-methyl-benzamide]: the IC50 is below 0.3 µM.

On to `CN(C(=O)c1ccc(-c2nc3ccccc3o2)cc1)[C@@H]1CC[C@H](C(=O)NC2(CO)CC2)C1` [Compound A108, 4-benzoxazol-2-yl-N-[(1R,3S)-3-(1-hydroxymethyl-cyclopropylcarbamoyl)-cyclopentyl]-N-methyl-benzamide], for which the IC50 is 0.3 to 3 µM.

The record behind these values is patent US9732032B2, “3-aminocyclopentane carboxamide derivatives” (Merck Patent GmbH, priority 2012, dated 2017).
